Measured values from ChEMBL document CHEMBL1201862, “PubChem BioAssay data set” (2004).
Calls of active or inactive are those of the source.

Experiments:
[1] = reduction of Shn3 3'UTR-driven luciferase in osteoblasts – cell-based, Clone20 osteoblasts, firefly luciferase, cherry-picked, dose response (AID 624132); type: functional;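 also: firefly luciferase luminescence from reporter carrying the Shn3 3'UTR in osteoblasts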
[2] = non-specific 3'UTR reporter inhibition in Clone20-Shn3RL – cell-based, Renilla luciferase, cherry-picked, counter-screen for Shn3 inhibitor project, dose response (AID 624133); type: functional
[3] = biological target: T1, Corticotropin-releasing factor receptor 2/Corticotropin-releasing factor-binding protein (Homo sapiens, UniProt P24387+Q13324); experiment: activators of CRF receptor 2 with binding protein – uHTS hits, confirmation (AID 602473); type: functional; settings: read-out: EC50_Mean
T1 sequence (Q13324 whole entry): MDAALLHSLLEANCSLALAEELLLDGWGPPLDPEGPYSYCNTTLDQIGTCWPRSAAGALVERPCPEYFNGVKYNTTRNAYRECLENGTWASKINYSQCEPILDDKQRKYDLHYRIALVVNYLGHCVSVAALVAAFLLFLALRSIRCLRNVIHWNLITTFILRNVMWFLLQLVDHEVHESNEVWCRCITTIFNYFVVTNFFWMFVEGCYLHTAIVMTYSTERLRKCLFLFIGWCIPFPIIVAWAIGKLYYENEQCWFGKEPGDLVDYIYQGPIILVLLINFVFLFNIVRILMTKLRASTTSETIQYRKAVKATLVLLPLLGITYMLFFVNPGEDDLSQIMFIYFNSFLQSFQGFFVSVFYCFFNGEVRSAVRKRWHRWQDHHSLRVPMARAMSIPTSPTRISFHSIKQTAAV
T1 sequence (P24387 whole entry): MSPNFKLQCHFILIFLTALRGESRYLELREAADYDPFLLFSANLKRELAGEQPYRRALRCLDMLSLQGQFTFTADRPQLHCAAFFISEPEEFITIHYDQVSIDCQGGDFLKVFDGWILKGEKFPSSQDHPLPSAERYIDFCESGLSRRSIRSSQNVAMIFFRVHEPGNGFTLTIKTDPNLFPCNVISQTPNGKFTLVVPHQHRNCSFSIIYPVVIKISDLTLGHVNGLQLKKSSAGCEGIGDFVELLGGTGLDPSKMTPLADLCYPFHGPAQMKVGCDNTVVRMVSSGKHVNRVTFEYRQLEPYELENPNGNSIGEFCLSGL

Cytochrome P450 1A2 = biological target: T2, Cytochrome P450 1A2 (Homo sapiens, UniProt P05177);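 also: PubChem cytochrome P450 panel assay, CYP1A2 panel member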
T2 sequence (P05177 whole entry): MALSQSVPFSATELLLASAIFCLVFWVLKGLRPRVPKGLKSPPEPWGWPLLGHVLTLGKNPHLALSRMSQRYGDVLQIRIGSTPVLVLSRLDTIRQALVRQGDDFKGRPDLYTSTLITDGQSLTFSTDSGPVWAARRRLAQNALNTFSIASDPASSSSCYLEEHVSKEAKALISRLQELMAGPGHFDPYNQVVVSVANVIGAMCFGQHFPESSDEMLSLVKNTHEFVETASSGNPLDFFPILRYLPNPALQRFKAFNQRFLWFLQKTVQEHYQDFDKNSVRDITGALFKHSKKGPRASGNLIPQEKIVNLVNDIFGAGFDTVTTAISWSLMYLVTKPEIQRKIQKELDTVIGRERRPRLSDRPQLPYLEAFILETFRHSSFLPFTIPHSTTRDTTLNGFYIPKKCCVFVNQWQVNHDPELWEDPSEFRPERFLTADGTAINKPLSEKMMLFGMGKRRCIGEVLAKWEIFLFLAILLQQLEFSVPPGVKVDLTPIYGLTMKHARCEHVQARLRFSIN

Streptokinase A = biological target: T3, Streptokinase A (Streptococcus pyogenes serotype M1, UniProt P10520); experiment: viability-normalized secreted streptokinase activity reduction – plasminogen activation absorbance, OD405, dose response (AID 1914); type: functional, Streptococcus pyogenes M1 GAS;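 also: secreted streptokinase activity via plasminogen activation per viability signal from cell pellet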
T3 sequence (P10520 whole entry): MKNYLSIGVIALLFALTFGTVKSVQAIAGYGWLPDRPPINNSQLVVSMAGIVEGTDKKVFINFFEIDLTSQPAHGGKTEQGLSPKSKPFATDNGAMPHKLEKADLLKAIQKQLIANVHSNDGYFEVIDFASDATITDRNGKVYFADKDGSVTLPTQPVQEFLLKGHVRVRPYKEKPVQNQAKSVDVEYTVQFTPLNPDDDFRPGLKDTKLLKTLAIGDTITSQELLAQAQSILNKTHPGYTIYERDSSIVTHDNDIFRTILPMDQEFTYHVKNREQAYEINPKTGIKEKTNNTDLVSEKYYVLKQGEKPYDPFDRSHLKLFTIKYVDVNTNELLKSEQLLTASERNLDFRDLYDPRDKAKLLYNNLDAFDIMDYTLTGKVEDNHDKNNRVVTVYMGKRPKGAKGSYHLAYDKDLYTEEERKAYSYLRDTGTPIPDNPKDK

Streptococcus = experiment: GAS UMAA2166 growth inhibition – luminescence, BacTiterGlo, counter-screen for streptokinase expression inhibitor project, dose response (AID 1915); type: functional, organism-based;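 also: potency for reduction of bacterial viability or growth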
[4] = system: Streptococcus sp. 'group A'; experiment: Streptococcus pyogenes SK(-)GAS viability under kanamycin – luminescence, BacTiterGlo, confirmation, counter-screen for streptokinase expression inhibitor project, dose response (AID 1900); type: functional, organism-based
[5] = Luminescence Cell-Based Dose Retest to Confirm Inhibitors of Cancer Stem Cells. [Related pubchem assays (depositor defined):AID2717, AID2721]; type: functional; settings: Homo sapiens
Cytochrome P450 2C19 = Cytochrome P450 2C19 (Homo sapiens, UniProt P33261); experiment: Cytochrome panel assay with activity outcomes. Panel member name: p450-cyp2c19 Compounds with AC50 equal or less than 10 uM are considered active; type: functional
Cytochrome P450 2D6 = Cytochrome P450 2D6 (Homo sapiens, UniProt P10635);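 also: CYP2D6 member of a cytochrome P450 panel assay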
INS1 = experiment: INS-1E survival protection against cytokine death – cell-based, luminescence, retest, dose response (AID 449756); type: functional; settings: Rattus norvegicus;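 also: cell death triggered by IL-1 beta plus TNF-alpha plus IFN-gamma mixture; protective hits raise ATP signal compared with cytokine alone wells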
Cytochrome P450 2C9 = Cytochrome P450 2C9 (Homo sapiens, UniProt P11712)
[6] = biological target: T4, Heat shock factor protein 1 (Mus musculus, UniProt P38532); experiment: decrease of HSF1-responsive luciferase luminescence – cell-based, NIH3T3, dose retest, confirmation (AID 2382); type: functional;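 also: NIH3T3 fibroblasts with HSF1-driven luciferase reporter stressed by proteasome inhibitor MG132; luminescence from HSF1-driven luciferase expression after 8 hours of MG132 stress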
T4 sequence (P38532 whole entry): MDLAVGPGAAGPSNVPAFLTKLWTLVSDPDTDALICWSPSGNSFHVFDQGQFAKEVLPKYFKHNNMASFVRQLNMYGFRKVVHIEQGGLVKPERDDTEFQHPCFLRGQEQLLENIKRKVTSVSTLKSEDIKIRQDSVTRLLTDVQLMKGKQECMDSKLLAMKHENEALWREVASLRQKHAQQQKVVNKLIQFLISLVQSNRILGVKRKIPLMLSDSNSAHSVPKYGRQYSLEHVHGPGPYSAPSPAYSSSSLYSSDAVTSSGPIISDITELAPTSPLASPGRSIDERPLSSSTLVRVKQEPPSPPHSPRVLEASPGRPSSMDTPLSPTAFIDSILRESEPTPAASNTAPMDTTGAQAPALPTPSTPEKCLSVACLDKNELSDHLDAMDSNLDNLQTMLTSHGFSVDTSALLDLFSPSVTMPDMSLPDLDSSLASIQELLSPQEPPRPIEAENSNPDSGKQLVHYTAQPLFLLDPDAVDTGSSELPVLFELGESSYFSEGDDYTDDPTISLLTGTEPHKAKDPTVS

Chain of Cytochrome P450 2C19 (P33261 whole entry): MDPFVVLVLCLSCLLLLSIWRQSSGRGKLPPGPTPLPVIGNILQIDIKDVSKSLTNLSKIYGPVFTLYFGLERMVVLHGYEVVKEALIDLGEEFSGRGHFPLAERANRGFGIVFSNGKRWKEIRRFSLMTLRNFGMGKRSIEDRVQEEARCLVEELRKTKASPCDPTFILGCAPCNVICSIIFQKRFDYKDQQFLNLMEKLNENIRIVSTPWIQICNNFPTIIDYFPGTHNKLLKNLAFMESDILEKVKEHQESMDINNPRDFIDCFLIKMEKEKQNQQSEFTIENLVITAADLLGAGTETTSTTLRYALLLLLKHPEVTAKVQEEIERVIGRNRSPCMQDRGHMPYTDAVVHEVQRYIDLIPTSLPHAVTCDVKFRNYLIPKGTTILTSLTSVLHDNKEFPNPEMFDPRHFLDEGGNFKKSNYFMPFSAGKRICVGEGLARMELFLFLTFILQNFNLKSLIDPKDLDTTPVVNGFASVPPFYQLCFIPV
Chain of Cytochrome P450 2D6 (P10635 whole entry): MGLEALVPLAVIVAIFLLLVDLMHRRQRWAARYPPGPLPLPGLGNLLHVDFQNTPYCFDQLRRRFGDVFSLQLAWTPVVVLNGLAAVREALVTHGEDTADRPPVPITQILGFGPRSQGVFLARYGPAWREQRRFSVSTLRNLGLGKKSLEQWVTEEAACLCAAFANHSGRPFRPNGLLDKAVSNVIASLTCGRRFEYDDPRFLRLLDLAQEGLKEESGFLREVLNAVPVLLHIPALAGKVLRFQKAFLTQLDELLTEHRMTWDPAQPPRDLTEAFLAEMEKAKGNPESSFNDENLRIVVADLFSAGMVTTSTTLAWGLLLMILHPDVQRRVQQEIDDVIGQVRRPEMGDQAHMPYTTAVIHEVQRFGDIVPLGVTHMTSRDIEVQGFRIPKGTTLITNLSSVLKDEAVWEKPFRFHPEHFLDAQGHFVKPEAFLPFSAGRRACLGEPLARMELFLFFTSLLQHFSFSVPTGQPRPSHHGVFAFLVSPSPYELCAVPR
Chain of Cytochrome P450 2C9 (P11712 whole entry): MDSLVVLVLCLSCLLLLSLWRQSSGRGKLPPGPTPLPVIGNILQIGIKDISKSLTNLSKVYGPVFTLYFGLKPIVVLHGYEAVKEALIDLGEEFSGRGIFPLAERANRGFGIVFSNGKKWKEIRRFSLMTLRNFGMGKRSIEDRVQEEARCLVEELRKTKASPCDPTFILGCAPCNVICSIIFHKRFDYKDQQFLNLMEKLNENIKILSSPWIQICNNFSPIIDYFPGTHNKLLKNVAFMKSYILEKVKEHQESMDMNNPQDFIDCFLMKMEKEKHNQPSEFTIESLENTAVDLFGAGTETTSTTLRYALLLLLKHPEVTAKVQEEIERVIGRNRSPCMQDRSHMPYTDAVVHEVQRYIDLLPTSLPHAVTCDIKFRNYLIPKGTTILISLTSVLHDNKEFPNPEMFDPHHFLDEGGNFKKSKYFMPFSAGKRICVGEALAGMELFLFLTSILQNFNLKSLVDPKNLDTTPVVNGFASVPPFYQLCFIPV

CC(=O)N1c2ccc(S(=O)(=O)N3CCC(C(=O)N4CCN(c5ccccc5F)CC4)CC3)cc2CC1C (stereo not drawn)
AC50 [1]: 5.41 µM (active) | AC50 [2]: 2.42 µM (active)

CN(C)c1ccc(C=C2SC(=S)NC2=O)cc1
EC50 [3]: 4.78 µM (active)

CCOC(=O)C1=C(COc2ccc(F)cc2Cl)NC(=O)NC1c1cc(C)ccc1C (stereo not drawn)
AC50 (Cytochrome P450 1A2): 17.8 µM (inconclusive)

O=S(=O)(c1ccccc1)N1CCN=C1SCc1c(F)cccc1Cl
EC50 (Streptokinase A): 18.4 µM (active) | EC50 (Streptococcus): > 150 µM (not active)

CCOC(=O)c1c(C)nc2c(c1-c1ccc(OC)cc1)C(=O)CC(C)(C)C2
AC50 (Cytochrome P450 1A2): 14.1 µM (inconclusive)

COc1cccc(/C=C/C(=C2/C(=O)N(c3ccccc3)N=C2C)c2ccc(Br)cc2)c1OC
EC50 [4]: > 150 µM (not active) | EC50 (Streptokinase A): > 150 µM (not active) | EC50 (Streptococcus): > 150 µM (not active) | AC50 [5]: > 195 µM (inactive)

COc1ccc(C)cc1NC(=O)NC1CCCc2ccccc21 (stereo not drawn)
EC50 [4]: > 150 µM (not active) | EC50 (Streptokinase A): > 150 µM (not active) | EC50 (Streptococcus): > 150 µM (not active)

Cc1cccc(CCNC(=O)CC2C(=O)NCCN2Cc2ccccc2C)n1 (stereo not drawn)
EC50 [4]: > 150 µM (not active) | EC50 (Streptokinase A): > 150 µM (not active) | EC50 (Streptococcus): > 150 µM (not active)

COc1ccc(OC)c(C2N(c3cc(C)on3)C(=O)C3CCCN32)c1 (stereo not drawn)
AC50 (Cytochrome P450 2C19): inconclusive | AC50 (Cytochrome P450 1A2): 25.1 µM (inconclusive)

CCNc1ncc2nc(-c3ccc(F)cc3)c(=O)n(CCOC)c2n1
AC50 (Cytochrome P450 2D6): 3.98 µM (inconclusive) | AC50 (Cytochrome P450 1A2): 2 µM (inconclusive)

CCOC(=O)Cc1csc(SCC(=O)c2c(N)n(CC(C)C)c(=O)n(C)c2=O)n1
AC50 [1]: 2.35 µM (active) | AC50 [2]: 8.62 µM (active)

COc1ccc2c(C(=O)NCc3ccc4c(c3)OCO4)c(-c3ccc(S(C)(=O)=O)cc3)sc2c1
AC50 (INS1): 6.76 µM (active)

NC1(C(=O)O)CCC1 [1-AMINOCYCLOBUTANE CARBOXYLIC ACID]
AC50 (Cytochrome P450 1A2): 39.8 µM (inconclusive)

COc1ccc(C2=NOC(C(=O)NCCN3CCOCC3)C2)cc1 (stereo not drawn)
AC50 (Cytochrome P450 1A2): 31.6 µM (inconclusive)

Cc1ccc(S(=O)(=O)c2cc3ccccc3o/c2=N\c2ccc3c(c2)OCO3)cc1
AC50 (Cytochrome P450 2D6): 7.94 µM (inconclusive) | AC50 (Cytochrome P450 1A2): 2.82 µM (inconclusive) | AC50 (Cytochrome P450 2C9): 3.55 µM (inconclusive)

COc1ccccc1C(=O)NC(=S)Nc1ccc(NC(=O)c2ccco2)cc1
EC50 (Streptokinase A): > 150 µM (not active) | EC50 (Streptococcus): 114 µM (inconclusive)

COc1ccccc1-c1cncnc1NCc1cnc(C)cn1
AC50 (Cytochrome P450 2C19; read-out: AC50): 31.6 µM (inconclusive) | AC50 (Cytochrome P450 2D6): 39.8 µM (inconclusive) | AC50 (Cytochrome P450 1A2): 20 µM (inconclusive)

CCn1c(C(C#N)/C(=N\S(=O)(=O)c2cccs2)c2ccccc2)nc2ccccc21 (stereo not drawn)
EC50 [6]: > 195 µM (not active)

COc1ccc(C2=NN(S(C)(=O)=O)C(c3cccs3)C2)cc1OC (stereo not drawn)
EC50 [6]: > 195 µM (not active)

CC1CCOC2(O1)C(=O)N(CN1CCN(c3ccccc3F)CC1)c1ccccc12 (stereo not drawn)
AC50 (Cytochrome P450 2C19; read-out: AC50): 11.2 µM (inconclusive) | AC50 (Cytochrome P450 2D6): 25.1 µM (inconclusive) | AC50 (Cytochrome P450 1A2): 2 µM (inconclusive)

CCc1ccccc1N(CC(=O)N1CCCC1)S(C)(=O)=O
EC50 [6]: > 195 µM (not active)

COc1ccc(CN2C(=O)c3ccccc3C(/C=N/OCc3ccc(Cl)cc3)C2=O)cc1 (stereo not drawn)
EC50 [4]: 1.44 µM (active) | EC50 (Streptokinase A): > 150 µM (not active) | EC50 (Streptococcus): 8.28 µM (active)

COc1ccc(OC)c(/N=C2\SCCCN2C(=O)c2ccc(N3C(=O)CCC3=O)cc2)c1
EC50 [6]: > 195 µM (not active)

C/C(CC(=O)Nc1ccccc1C(F)(F)F)=N\NC(=O)c1cnccn1
EC50 [6]: > 195 µM (not active)

Cc1ccc(OP(=O)(Nc2cccc(C)c2)Oc2ccc(C)cc2)cc1
EC50 [4]: 13 µM (active) | EC50 (Streptokinase A): 5.1 µM (active) | EC50 (Streptococcus): 28.9 µM (active)

N[C@H](Cc1ccccc1)c1nnn[nH]1
AC50 (Cytochrome P450 1A2): 10 µM (inconclusive)

CCN(c1ccccc1)S(=O)(=O)c1ccc(Cl)c(NC(=O)CSc2nnc(C)s2)c1
EC50 [6]: > 195 µM (not active)

O=C(CCNS(=O)(=O)c1cccc2nsnc12)NCc1cccs1
EC50 [6]: > 195 µM (not active)

O=C(C(Sc1ccccc1)c1ccccc1)N1CCN(c2ccccc2F)CC1 (stereo not drawn)
AC50 (INS1): > 120 µM (inactive)

COC(=O)c1ccccc1NC(=O)CSc1nnc(C(CO)NC(=O)c2ccccc2)n1C (stereo not drawn)
EC50 [6]: > 195 µM (not active)

O=C(c1ccco1)N1CCC2(CCN(Cc3ccncc3)CC2)CC1
AC50 (Cytochrome P450 2D6): 10 µM (inconclusive) | AC50 (Cytochrome P450 1A2): 20 µM (inconclusive)

COc1cccc(C(=O)Nc2ccc(NC(=O)C3CC=CCC3C(=O)O)cc2)c1 (stereo not drawn)
EC50 [6]: > 195 µM (not active)

COc1ccc(N(C)S(=O)(=O)c2cccc(C(=O)Nc3nc(C)c(C(C)=O)s3)c2)cc1
AC50 (INS1): 28.3 µM (active)

CCOc1ccc(C(Nc2ccc(C)cc2)P2(=O)OCC(C)(C)CO2)cc1 (stereo not drawn)
AC50 (Cytochrome P450 1A2): 39.8 µM (inconclusive) | AC50 (Cytochrome P450 2C9): 0.02 µM (inconclusive)

CC(C)(C)OC(=O)NCc1ccc(NC(=O)c2[nH]cnc2C(=O)NCCCCNC(=O)c2nc[nH]c2C(=O)Nc2ccc(CNC(=O)OC(C)(C)C)cc2)cc1
AC50 [5]: 1.73 µM (active) | AC50 (INS1): 3.36 µM (active)

C/C(=N\O)C1CCCCC1
EC50 [6]: > 195 µM (not active)

C(#Cc1ccccc1)CN1CCN(c2ccccn2)CC1
EC50 [6]: > 195 µM (not active)

CCN(CC)CCOc1ccc2nc(N(C)C)sc2c1
AC50 (Cytochrome P450 2D6): 15.8 µM (inconclusive) | AC50 (Cytochrome P450 1A2): 15.8 µM (inconclusive)

NC(=O)C1CCCN(C(=O)c2ccc3oc(Cc4ccc(Cl)cc4)nc3c2)C1 (stereo not drawn)
EC50 [6]: > 195 µM (not active)

CC1(C)NC(=O)N(CC(O)CN(c2ccccc2)S(=O)(=O)c2ccc([N+](=O)[O-])cc2)C1=O (stereo not drawn)
EC50 [6]: > 195 µM (not active)

O=C(CC(Nc1ccc(Cl)cc1Cl)C(=O)O)c1ccccc1 (stereo not drawn)
EC50 [6]: < 0.16 µM (active)
